{
  "source": "patent US20210130308A1",
  "about": "“MODULATORS OF EUKARYOTIC INITIATION FACTOR 2” (Denali Therapeutics Inc., priority 2018, published 2021)",
  "data": [
    {"system": "ATF4 translation (ISR pathway activation)", "test": "ATF4 Nano Luciferase reporter integrated stress response (ISR) assay in H4 ATF4-NLuc (clone 17) cells", "format": "cell-based, human", "settings": "Homo sapiens, 0.5 h", "how_it_was_run": "(§1)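 H4 cells stably carrying an ATF4 5′-UTR (+1 to +364)–NanoLuc fusion reporter (clone 17), in DMEM + 10% FBS, preincubated with compound 30 min at 37 °C. ISR then induced with 50 um sodium arsenite for 6 h; inhibition measured as NanoLuc luminescence, expressed as IC50.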", "units": {"IC50": "µM"}, "values": [
      {"smiles": "O=C(COC1CCN(CC(F)(F)F)C1)NC12CC(NC(=O)c3ccc4cc(C(F)(F)F)ccc4n3)(C1)C2", "note": "(stereo not drawn) [Example 73]", "IC50": "< 1"}
    ]},
    {"system": "ATF4 translation (ISR pathway activation)", "test": "ATF4 Nano Luciferase reporter integrated stress response (ISR) assay in H4 ATF4-NLuc (clone 17) cells", "format": "cell-based, human", "settings": "Homo sapiens, 0.5 h; H4 ATF4-NLuc (clone 17) cells; compounds 30 minutes at 37 degree Celsius, then 50 um sodium arsenite for 6 additional hours; luminescence readout; read-out: IC50", "how_it_was_run": "as §1", "units": {"IC50": "µM"}, "values": [
      {"smiles": "O=C(NC1CCN(C(=O)COC2CC(OC(F)(F)F)C2)CC1)c1ccc2cc(Cl)ccc2n1", "note": "(stereo not drawn) [Example 63, 6-chloro-N-[1-[2-[3-cis-(trifluoromethoxy)cyclobutoxy]acetyl]-4-piperidyl]quinoline-2-carboxamide]", "IC50": "< 1"},
      {"smiles": "O=C(COC1CC(OC(F)(F)F)C1)NC12CC(NC(=O)c3ccc4cc(Cl)ccc4n3)(C1)C2", "note": "(stereo not drawn) [Example 64, 6-chloro-N-[1-[[2-[3-cis-(trifluoromethoxy)cyclobutoxy]acetyl]amino]-3-bicyclo[1.1.1]pentanyl]quinoline-2-carboxamide]", "IC50": "< 1"},
      {"smiles": "O=C(COC1CCC1)NC12CC(NC(=O)c3ccc4cc(Cl)ccc4n3)(C1)C2", "note": "[Example 65, 6-chloro-N-[1-[[2-(cyclobutoxy)acetyl]amino]-3-bicyclo[1.1.1]pentanyl]quinoline-2-carboxamide]", "IC50": "< 1"},
      {"smiles": "O=C(COC1CC(OC(F)(F)F)C1)NC12CC(NC(=O)c3ccc4cc(F)ccc4n3)(C1)C2", "note": "(stereo not drawn) [Example 66, 6-fluoro-N-[1-[[2-[3-cis-(trifluoromethoxy)cyclobutoxy]acetyl]amino]-3-bicyclo[1.1.1]pentanyl]quinoline-2-carboxamide]", "IC50": "< 1"},
      {"smiles": "O=C(COC1CC(C(F)(F)F)C1)NC12CC(NC(=O)c3ccc4cc(C(F)(F)F)ccc4n3)(C1)C2", "note": "(stereo not drawn) [Example 67, 6-(trifluoromethyl)-N-(3-(2-(3-(trifluoromethyl)cyclobutoxy)acetamido)bicyclo[1.1.1]pentan-1-yl)quinoline-2-carboxamide]", "IC50": "< 1"},
      {"smiles": "O=C(COC1CC(OC(F)(F)F)C1)NC12CC(NC(=O)c3ccc4c(F)c(F)ccc4n3)(C1)C2", "note": "(stereo not drawn) [Example 68, 5,6-difluoro-N-(3-(2-(3-cis-(trifluoromethoxy)cyclobutoxy)acetamido)bicyclo[1.1.1]pentan-1-yl)quinoline-2-carboxamide]", "IC50": "< 1"},
      {"smiles": "O=C(COC1CC(OC(F)(F)F)C1)NC12CC(NC(=O)c3ccc4cc(F)c(F)cc4n3)(C1)C2", "note": "(stereo not drawn) [Example 69, 6,7-difluoro-N-(3-(2-(3-cis-(trifluoromethoxy)cyclobutoxy)acetamido)bicyclo[1.1.1]pentan-1-yl)quinoline-2-carboxamide]", "IC50": "< 1"},
      {"smiles": "CC(C)OC1CC(OCC(=O)NC23CC(NC(=O)c4ccc5cc(C(F)(F)F)ccc5n4)(C2)C3)C1", "note": "(stereo not drawn) [Example 70, N-(3-(2-(3-cis-isopropoxycyclobutoxy)acetamido)bicyclo[1.1.1]pentan-1-yl)-6-(trifluoromethyl)quinoline-2-carboxamide]", "IC50": "< 1"},
      {"smiles": "CCOC1CC(OCC(=O)NC23CC(NC(=O)c4ccc5cc(C(F)(F)F)ccc5n4)(C2)C3)C1", "note": "(stereo not drawn) [Example 71, N-(3-(2-(3-cis-ethoxycyclobutoxy)acetamido)bicyclo[1.1.1]pentan-1-yl)-6-(trifluoromethyl)quinoline-2-carboxamide]", "IC50": "< 1"},
      {"smiles": "O=C(COc1ccc(C(F)(F)F)cc1)NC12CC(N3CCN(C4CC(OC(F)(F)F)C4)C3=O)(C1)C2", "note": "(stereo not drawn) [Example 74]", "IC50": "< 1"},
      {"smiles": "O=C(COC1CC(CC(F)(F)F)C1)NC12CC(NC(=O)c3ccc4cc(C(F)(F)F)ccc4n3)(C1)C2", "note": "(stereo not drawn) [Example 75]", "IC50": "< 1"}
    ]}
  ]
}
